Assay results from patent US20050260183A1, “Treatment of surfaces populated by bacteria with a lucilia sericata extract” (priority 2002, published 2005).
Read-outs that look alike come from different tables or passages of the source. Ends that are not written are not given here.

What was measured:
[1] = tested on: BHL; assay type: biochemical, Pseudomonas aeruginosa
[2] = tested on: OdDHL; assay type: biochemical, Pseudomonas aeruginosa
[3] = tested on: E. coli D31; assay type: cell-based

Compound | effect of pre-incubation of ES with inhibitor on BHL degradation [1] | effect of inhibitor on OdDHL degradation by ES [2] | antimicrobial plaque diameter ([3]; 2 μl Cecropin B at 10 μg/ml) | antimicrobial plaque diameter ([3]; 2 μl Cecropin B at 100 μg/ml)
O=S(=O)(F)Cc1ccccc1 [PMSF, phenylmethanesulphonyl fluoride] | degradation was prevented | inhibited | – | –
Cecropin B (KWKVFKKIEKMGRNIRNGIVKAGPAIAVLGEAKAL; ends and bridges not checked; UniProt P01508 27-61, looked up) [Cecropin B (Sigma), anti-microbial standard] | – | – | 4.25 mm | 8 mm
